The results in this text go back to BindingDB's records for doi:10.1021/jm801063n (University of Auckland, 2009).

Some results are limits rather than exact numbers.

One may read the IC50 as the point on the concentration scale where inhibition reaches its midpoint.

A short description of the test: Inhibition of recombinant perforin-mediated lysis of human Jurkat T cells by 51Cr release assay.
With `Cc1cc2c(c(=S)[nH]1)C(=O)O/C2=C\c1ccc(C(F)(F)F)cc1` [(Z)-6-Methyl-4-thioxo-1-(4-(trifluoromethyl)benzylidene)-4,5-dihydrofuro[3,4-c]pyridin-3(1H)-one], the IC50 is greater than 20 µM. For `COc1ccc2[nH]c(/C=C3\OC(=O)c4c3cc(C)[nH]c4=S)cc2c1` [(Z)-1-((5-Methoxy-1H-indol-2-yl)methylene)-6-methyl-4-thioxo-4,5-dihydrofuro[3,4-c]pyridin-3(1H)-one], the IC50 is 4.6 µM. Then `Cc1cc2c(c(=S)[nH]1)C(=O)O/C2=C\c1coc2ccccc12` [(Z)-1-(Benzofuran-3-ylmethylene)-6-methyl-4-thioxo-4,5-dihydrofuro[3,4-c]pyridin-3(1H)-one], with greater than 20 µM; and `Cc1cc2c(c(=S)[nH]1)C(=O)O/C2=C\c1cccc2cc[nH]c12` [(Z)-1-((1H-Indol-7-yl)methylene)-6-methyl-4-thioxo-4,5-dihydrofuro[3,4-c]pyridin-3(1H)-one], with 4.1 µM; and `Cc1cc2c(c(=O)[nH]1)C(=O)N/C2=C\c1ccc(C)o1` [(Z)-6-Methyl-1-((5-methylfuran-2-yl)methylene)-1H-pyrrolo[3,4-c]pyridine-3,4(2H,5H)-dione], with greater than 20 µM.

As to `Cc1cc2c(c(=S)[nH]1)C(=O)O/C2=C\c1cc2ccccc2n1C` [(Z)-6-Methyl-1-((1-methyl-1H-indol-2-yl)methylene)-4-thioxo-4,5-dihydrofuro[3,4-c]pyridin-3(1H)-one], the IC50 was greater than 20 µM.

`COc1ccc2c(/C=C3\OC(=O)c4c3cc(C)[nH]c4=S)csc2c1` [(Z)-1-((6-Methoxybenzo[b]thiophen-3-yl)methylene)-6-methyl-4-thioxo-4,5-dihydrofuro[3,4-c]pyridin-3(1H)-one]: the IC50 is 4.7 µM. For `COc1cc2cc(/C=C3\OC(=O)c4c3cc(C)[nH]c4=S)oc2cc1OCc1ccccc1` [(Z)-1-((6-(Benzyloxy)-5-methoxybenzofuran-2-yl)methylene)-6-methyl-4-thioxo-4,5-dihydrofuro[3,4-c]pyridin-3(1H)-one] the value was 5.1 µM; for `Cc1cc2c(c(=S)[nH]1)C(=O)O/C2=C\c1cc2ccccc2o1` [(Z)-1-(Benzofuran-2-ylmethylene)-6-methyl-4-thioxo-4,5-dihydrofuro[3,4-c]pyridin-3(1H)-one], 8.2 µM. For `Cc1cc2c(c(=S)[nH]1)C(=O)O/C2=C\c1cc2cc(OCc3ccccc3)ccc2[nH]1` [(Z)-1-((5-(Benzyloxy)-1H-indol-2-yl)methylene)-6-methyl-4-thioxo-4,5-dihydrofuro[3,4-c]pyridin-3(1H)-one] the value was greater than 20 µM; for `Cc1ccc(/C=C2\OC(=O)c3c2cc(C)[nH]c3=S)cc1` [(Z)-6-Methyl-1-(4-methylbenzylidene)-4-thioxo-4,5-dihydrofuro[3,4-c]pyridin-3(1H)-one], greater than 20 µM.
